Key:
Assay type in all cases: in vivo, man
[1] = system: volunteers with telogenic defluvium; test: Clinical study: haematochemical analysis; settings: oral, one capsule a day for 60 days
Description: (§1) This controlled, randomized double-blind study was performed according to the present invention by means of the protocols below.
(§2) Sixty volunteers of both sexes and ranging between 18 and 60 years old were divided into three groups of 20 individuals each, all having the same level of pathology, i.e. telogenic defluvium existing for at least 2 months.
(§3) Some of these individuals were treated for 60 days with one capsule a day of a composition of the invention, according to the following scheme:
(§4) Group 1: 20 individuals treated with a composition of the invention containing spermidine alone (0.50 mg per capsule).
(§5) Group 2: 20 individuals treated with a composition of the invention according to Example 1 described later (spermidine 0.50 mg per capsule). […]
(§6) The parameters evaluated were the following: • A) General dermatological visit. • B) Microscopic evaluation of the shaft of the hairs (diameter and possible structural changes in the hair). • C) Trichogram, i.e. evaluation of the bulbs in the anagenic (growth) phase, catagenic (involutive stasis) phase, telogenic (pathological precocious hair loss) phase and exogenic (physiological loss of hairs since they are replaced with new hairs). • D) Haematochemical analysis. • E) Pull test (mechanical tensile strength of the hair). • F) Wash test (count of the hairs lost after washing with shampoo). • G) Possible side effects. […]

[2] = system: volunteers with telogenic defluvium; test: Clinical study: general dermatological visit; settings: oral, one capsule a day (spermidine 0.50 mg) for 60 days; compared with placebo group 3
Description: as §1, §2, §3, §4, §5, §6

[3] = system: volunteers with telogenic defluvium; test: Clinical study: wash test (count and phase of hairs lost after shampoo)
Description: as §1, §2, §3, §4
(§7) Group 2: 20 individuals treated with a composition of the invention according to Example 1 described later (spermidine 0.50 mg per capsule).
(§8) Group 3: 20 individuals treated with a placebo, in capsules.
(§9) The parameters evaluated were the following: • A) General dermatological visit. • B) Microscopic evaluation of the shaft of the hairs (diameter and possible structural changes in the hair). • C) Trichogram, i.e. evaluation of the bulbs in the anagenic (growth) phase, catagenic (involutive stasis) phase, telogenic (pathological precocious hair loss) phase and exogenic (physiological loss of hairs since they are replaced with new hairs). • D) Haematochemical analysis. • E) Pull test (mechanical tensile strength of the hair). • F) Wash test (count of the hairs lost after washing with shampoo). • G) Possible side effects.
(§10) These parameters were evaluated at time T0 (before the start of the treatment); at time T1 (at the end of the 60 days of treatment); and finally at time T2 (30 days after stopping the administration).
This test makes it possible not only to quantify the number of hairs lost after shampooing, but also, by means of a suitable microscopic analysis, to evaluate the phase of the cycle in which the bulb was found when the hair fell out: pathological loss (telogenic) or phase of physiological exchange (exogenic).
The test results are given in the graph of FIG. 3 in the attached drawings. […]

[4] = system: volunteers with telogenic defluvium; test: Clinical study: trichogram (evaluation of the hair bulbs by phase)
Description: as §1, §2, §3, §4, §7, §8, §9, §10
In this regard, reference is made to the diagrams of FIGS. 1 and 2 in the attached drawings. These show the trichogram of the anagenic and telogenic phases at times T0 (before the start of the treatment); at time T1 (at the end of the 60 days of treatment); and finally at time T2 (30 days after stopping the administration) for the individuals of the three groups, 1 (grey column), 2 (black column) and 3 (pale column). The percentage of hairs in the anagenic phase (FIG. 1) and in the telogenic phase (FIG. 2) for the treated individuals belonging to the three groups under consideration is shown on the y-axis, and the said times T are shown on the x-axis, under which are tabulated the said percentages found.

[5] = system: volunteers with telogenic defluvium; test: Clinical study: pull test (mechanical tensile strength of the hair); settings: oral, one capsule a day for 60 days; placebo virtually unchanged
Description: as §1, §2, §3, §4, §5, §6

[6] = system: volunteers with telogenic defluvium; test: Clinical study: microscopic evaluation of the hair shaft; settings: oral, one capsule a day (spermidine 0.50 mg) for 60 days; placebo virtually unchanged
Description: as §1, §2, §3, §4, §5, §6

[7] = oral, one capsule a day for 60 days, placebo not significantly changed

NCCCCNCCCN [spermidine, N-(3-aminopropyl)tetramethylenediamine]
haematochemical analyses [1]: within the norm | hair loss at dermatological visit [2]: appreciable and significant reduction in the hair loss | structure of the hair shaft at dermatological visit [2]: improvement in the structure of the shaft | lost hairs in the telogenic phase (pathological loss) ([3]; bulbs of hairs lost in the wash test, placebo more than 90%): 63% | lost hairs in the exogenic phase (physiological loss) ([3]; bulbs of hairs lost in the wash test, placebo only 3%): 33% | number of hairs lost in the wash test ([3]; oral, one capsule a day for 60 days, placebo unchanged): decreases significantly | increase in the anagenic phase at T1 ([4]; T1 = end of the 60 days of treatment, relative to T0, placebo 2.7%): 8.1% | decrease in the telogenic phase at T1 ([4]; T1 = end of the 60 days of treatment, placebo increased by about 1.88%): 9.1% | decrease in the telogenic phase at T2 ([4]; T2 = 30 days after stopping the 60-day administration, placebo 4.16%): 6.76% | increase in the anagenic phase at T2 relative to T0 ([4]; T2 = 30 days after stopping the 60-day administration, placebo 7.79%): 17.2% | number of bulbs in the anagenic phase (in words) [4, 7]: increases significantly | telogenic phase (in words) [4, 7]: decreases significantly | mechanical tensile strength of the hair (pull test) [5]: increased significantly | diameter of the hair shaft [6]: increases quite substantially
